Experiments:
Caco-2 cell monolayers = assay: Caco-2 permeation assay; type: in vitro ADME; conditions: 5 μM, A-B direction, with Verapamil (25 μM)
Summary of the method: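 Passive A-to-B permeability with P-gp inhibited by verapamil (25 μM); compound at 5 μM, n=2. Both compartments sampled at t0 and t120 and quantified by LC-MS/MS, giving apparent permeability in cm/sec from flux, area and concentration.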

JAK1 = JAK1 (Homo sapiens (Human), UniProt P23458); assay: Biochemical JAK1 kinase assay (LanthaScreen)
Summary of the method: (§1)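 GST-JAK + GFP-STAT1 peptide, HEPES pH 7.5/MgCl2/EGTA/Brij-35 buffer; cpd preincubation 1 h RT; ATP start, 1 h RT; stop with 10 mM EDTA + 2 nM Tb-anti-pSTAT1; TR-FRET 520/495. 4-parameter IC50 → pKi (Cheng-Prusoff).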

JAK2 = JAK2 (Homo sapiens (Human), UniProt O60674); assay: Biochemical JAK2 kinase assay (LanthaScreen)
Summary of the method: as §1

Tyk2 = Tyk2 (Homo sapiens (Human), UniProt P29597); assay: Biochemical Tyk2 kinase assay (LanthaScreen)
Summary of the method: as §1

[1] = system: IL-2 stimulated STAT5 phosphorylation in Tall-1 human T cell line (JAK3); assay: Cellular JAK3 potency assay: inhibition of IL-2 stimulated pSTAT5 in Tall-1 T cells; type: cell-based; conditions: IL-2 stimulated pSTAT5, Tall-1 T cells
Summary of the method: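 AlphaLISA SureFire Ultra measures STAT5 Tyr694/699 phosphorylation in lysed Tall-1 human T cells. Cells were exposed to compound for 1 h at 37 °C before a 30 min IL-2 challenge (300 ng/ml final). Values are pIC50 means with standard deviation from signal-versus-concentration curves.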

JAK3 = JAK3 (Homo sapiens (Human), UniProt P52333); assay: Biochemical JAK3 kinase assay (LanthaScreen); conditions: for JAK3 (pKi)-JAK1 (pKi): selectivity JAK3 over JAK1, difference of pKi
Summary of the method: as §1

Chain of Tyk2 (P29597 whole entry): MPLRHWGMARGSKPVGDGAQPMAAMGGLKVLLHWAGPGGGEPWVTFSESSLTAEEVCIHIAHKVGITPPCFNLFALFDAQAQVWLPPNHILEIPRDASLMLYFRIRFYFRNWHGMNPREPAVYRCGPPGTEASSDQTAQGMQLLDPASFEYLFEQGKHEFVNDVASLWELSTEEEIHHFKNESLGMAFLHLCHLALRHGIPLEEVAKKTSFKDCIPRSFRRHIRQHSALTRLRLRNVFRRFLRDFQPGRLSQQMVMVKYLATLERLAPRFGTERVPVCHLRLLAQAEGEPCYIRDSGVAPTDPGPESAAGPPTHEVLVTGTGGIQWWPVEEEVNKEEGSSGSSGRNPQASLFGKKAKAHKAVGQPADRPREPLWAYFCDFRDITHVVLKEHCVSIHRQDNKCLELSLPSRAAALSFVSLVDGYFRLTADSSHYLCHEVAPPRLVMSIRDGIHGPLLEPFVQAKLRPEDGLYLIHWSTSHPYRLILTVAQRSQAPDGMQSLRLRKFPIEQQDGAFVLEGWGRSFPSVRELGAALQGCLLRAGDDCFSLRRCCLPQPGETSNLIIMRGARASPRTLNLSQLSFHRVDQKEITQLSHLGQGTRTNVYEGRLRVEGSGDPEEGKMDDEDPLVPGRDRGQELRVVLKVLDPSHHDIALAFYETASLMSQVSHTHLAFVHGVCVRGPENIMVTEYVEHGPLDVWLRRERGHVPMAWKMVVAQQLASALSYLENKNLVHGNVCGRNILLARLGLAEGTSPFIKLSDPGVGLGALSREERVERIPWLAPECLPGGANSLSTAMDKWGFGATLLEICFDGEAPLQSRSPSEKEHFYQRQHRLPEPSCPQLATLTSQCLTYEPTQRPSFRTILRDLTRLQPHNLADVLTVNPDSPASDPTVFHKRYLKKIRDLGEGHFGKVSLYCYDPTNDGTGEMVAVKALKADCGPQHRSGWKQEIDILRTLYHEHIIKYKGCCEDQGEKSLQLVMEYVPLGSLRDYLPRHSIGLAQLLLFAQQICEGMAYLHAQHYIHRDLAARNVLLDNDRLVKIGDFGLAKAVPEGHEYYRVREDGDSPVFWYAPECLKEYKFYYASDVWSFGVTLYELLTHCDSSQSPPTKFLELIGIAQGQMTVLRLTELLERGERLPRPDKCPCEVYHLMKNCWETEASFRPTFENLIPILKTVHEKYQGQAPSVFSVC
Chain of JAK1 (P23458 whole entry): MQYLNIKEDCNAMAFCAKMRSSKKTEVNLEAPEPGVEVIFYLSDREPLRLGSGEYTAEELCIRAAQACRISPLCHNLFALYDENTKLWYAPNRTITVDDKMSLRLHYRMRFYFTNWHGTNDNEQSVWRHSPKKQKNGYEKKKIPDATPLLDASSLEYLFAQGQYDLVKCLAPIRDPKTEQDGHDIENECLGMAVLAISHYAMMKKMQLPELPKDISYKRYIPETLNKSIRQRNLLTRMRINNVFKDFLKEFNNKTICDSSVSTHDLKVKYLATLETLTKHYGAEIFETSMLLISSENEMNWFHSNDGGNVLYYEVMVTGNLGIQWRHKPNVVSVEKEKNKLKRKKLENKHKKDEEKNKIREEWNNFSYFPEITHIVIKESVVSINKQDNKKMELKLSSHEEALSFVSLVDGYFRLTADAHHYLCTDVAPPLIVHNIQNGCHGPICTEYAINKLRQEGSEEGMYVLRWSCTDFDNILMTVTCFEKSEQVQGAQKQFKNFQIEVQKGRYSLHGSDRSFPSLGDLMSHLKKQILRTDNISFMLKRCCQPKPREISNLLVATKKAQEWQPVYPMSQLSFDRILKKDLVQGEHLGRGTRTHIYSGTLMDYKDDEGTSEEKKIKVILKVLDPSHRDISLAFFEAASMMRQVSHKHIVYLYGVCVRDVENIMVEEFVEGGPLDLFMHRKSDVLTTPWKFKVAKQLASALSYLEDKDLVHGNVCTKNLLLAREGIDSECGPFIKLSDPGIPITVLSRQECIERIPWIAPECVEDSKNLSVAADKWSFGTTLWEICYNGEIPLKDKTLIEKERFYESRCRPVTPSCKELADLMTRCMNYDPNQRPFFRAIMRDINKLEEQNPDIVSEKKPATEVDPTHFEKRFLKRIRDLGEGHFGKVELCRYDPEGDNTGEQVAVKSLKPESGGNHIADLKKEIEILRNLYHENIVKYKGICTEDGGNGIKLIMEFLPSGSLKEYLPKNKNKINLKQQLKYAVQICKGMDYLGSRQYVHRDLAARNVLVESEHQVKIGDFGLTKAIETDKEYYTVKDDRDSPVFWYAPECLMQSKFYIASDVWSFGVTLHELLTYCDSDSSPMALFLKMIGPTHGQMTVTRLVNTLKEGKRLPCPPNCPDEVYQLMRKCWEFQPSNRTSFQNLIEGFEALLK
Chain of JAK2 (O60674 whole entry): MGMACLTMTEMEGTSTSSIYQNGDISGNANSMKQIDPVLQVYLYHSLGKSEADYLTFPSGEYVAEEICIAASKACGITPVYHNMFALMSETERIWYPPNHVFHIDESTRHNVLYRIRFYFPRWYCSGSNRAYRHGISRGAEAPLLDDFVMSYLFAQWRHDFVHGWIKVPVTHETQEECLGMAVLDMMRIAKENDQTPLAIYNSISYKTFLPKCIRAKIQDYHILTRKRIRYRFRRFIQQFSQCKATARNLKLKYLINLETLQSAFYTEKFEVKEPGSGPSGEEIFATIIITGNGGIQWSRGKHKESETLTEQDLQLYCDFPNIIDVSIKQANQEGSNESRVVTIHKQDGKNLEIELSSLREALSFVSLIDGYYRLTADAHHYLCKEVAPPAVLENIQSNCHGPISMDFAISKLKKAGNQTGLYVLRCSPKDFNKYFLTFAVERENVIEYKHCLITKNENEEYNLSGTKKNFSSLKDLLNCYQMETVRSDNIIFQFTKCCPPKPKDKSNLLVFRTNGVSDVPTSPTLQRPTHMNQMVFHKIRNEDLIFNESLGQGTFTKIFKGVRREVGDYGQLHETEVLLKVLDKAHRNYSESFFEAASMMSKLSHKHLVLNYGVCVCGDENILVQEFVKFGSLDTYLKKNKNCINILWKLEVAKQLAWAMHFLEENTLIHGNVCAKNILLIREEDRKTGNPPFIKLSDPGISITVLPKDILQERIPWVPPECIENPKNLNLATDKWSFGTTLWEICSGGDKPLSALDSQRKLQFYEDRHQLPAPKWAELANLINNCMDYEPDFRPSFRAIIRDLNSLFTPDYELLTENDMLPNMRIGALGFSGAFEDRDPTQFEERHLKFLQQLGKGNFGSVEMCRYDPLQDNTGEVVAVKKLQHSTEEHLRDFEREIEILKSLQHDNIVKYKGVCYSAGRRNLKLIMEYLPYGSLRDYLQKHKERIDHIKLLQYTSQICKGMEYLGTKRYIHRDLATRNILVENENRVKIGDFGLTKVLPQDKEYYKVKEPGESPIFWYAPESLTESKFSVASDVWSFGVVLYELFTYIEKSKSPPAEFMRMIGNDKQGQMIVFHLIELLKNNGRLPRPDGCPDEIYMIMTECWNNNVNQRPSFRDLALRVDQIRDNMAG
Chain of JAK3 (P52333 whole entry): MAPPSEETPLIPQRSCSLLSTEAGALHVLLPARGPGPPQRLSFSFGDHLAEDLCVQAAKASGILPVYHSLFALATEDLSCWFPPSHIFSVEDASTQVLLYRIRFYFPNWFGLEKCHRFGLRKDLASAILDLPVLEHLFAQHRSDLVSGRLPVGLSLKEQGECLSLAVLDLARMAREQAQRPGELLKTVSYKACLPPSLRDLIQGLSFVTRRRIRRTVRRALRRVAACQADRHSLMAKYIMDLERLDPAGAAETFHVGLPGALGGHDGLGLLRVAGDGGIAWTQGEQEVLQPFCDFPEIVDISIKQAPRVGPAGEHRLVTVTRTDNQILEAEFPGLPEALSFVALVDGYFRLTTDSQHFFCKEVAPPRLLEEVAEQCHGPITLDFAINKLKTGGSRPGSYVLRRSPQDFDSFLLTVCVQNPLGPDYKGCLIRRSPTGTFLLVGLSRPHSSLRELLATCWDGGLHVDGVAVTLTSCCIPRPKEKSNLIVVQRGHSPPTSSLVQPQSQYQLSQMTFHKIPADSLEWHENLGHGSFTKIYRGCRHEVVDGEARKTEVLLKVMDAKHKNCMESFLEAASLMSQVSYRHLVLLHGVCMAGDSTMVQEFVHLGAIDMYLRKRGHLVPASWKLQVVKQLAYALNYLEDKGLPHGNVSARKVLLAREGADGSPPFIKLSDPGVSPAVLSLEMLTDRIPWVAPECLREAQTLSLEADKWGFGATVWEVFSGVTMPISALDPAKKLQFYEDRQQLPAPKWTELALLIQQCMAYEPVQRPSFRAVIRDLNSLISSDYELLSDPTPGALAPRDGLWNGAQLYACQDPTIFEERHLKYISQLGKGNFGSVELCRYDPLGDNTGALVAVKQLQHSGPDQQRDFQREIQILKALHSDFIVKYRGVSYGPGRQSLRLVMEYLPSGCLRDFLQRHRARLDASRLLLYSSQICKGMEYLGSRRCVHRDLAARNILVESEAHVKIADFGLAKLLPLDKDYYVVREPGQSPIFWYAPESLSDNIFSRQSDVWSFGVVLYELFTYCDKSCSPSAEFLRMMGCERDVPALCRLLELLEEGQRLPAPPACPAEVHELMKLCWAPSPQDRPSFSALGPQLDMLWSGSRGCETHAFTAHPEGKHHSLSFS

Row | SMILES | Caco Kp (Caco-2 cell monolayers) | JAK 1 (pKi) (JAK1) | JAK 2 (pKi) (JAK2) | Tyk 2 (pKi) (Tyk2) | Tall-1 (pIC50) [1] | JAK 3 (pKi) (JAK3) | JAK3 (pKi)-JAK1 (pKi) (JAK3)
1 | C=CC(=O)N1CC(CCn2c(=O)ccc3cnc(Nc4ccc(N5CCN(C(C)=O)C[C@H]5C)cc4)nc32)C1 [Example 10, (R)-2-((4-(4-acetyl-2-methylpiperazin-1-yl)phenyl)amino)-8-(2-(1-acryloylazetidin-3-yl)ethyl)pyrido[2,3-d]pyrimidin-7(8H)-one] | A (A represents a value below 5×10^−6 cm/sec) | E (E represents a pKi value of 7 or below (Ki of 100 nM or above)) | E (E represents a pKi value of 7 or below (Ki of 100 nM or above)) | E (E represents a pKi value of 7 or below (Ki of 100 nM or above)) | A (A represents a pIC50 value≥7.5 (IC50≤32 nM)) | A (A represents a pKi value≥10 (Ki≤0.1 nM)) | A (A represents a value of 3 or above)
2 | C=CC(=O)N1CCN(CCn2c(=O)ccc3cnc(Nc4ccc(N5CCN(S(=O)(=O)CCOC)CC5)cc4)nc32)[C@@H](C)C1 [Example 170] | B (B represents a value between 5×10^−6 and 10×10^−6 cm/sec) | E (E represents a pKi value of 7 or below (Ki of 100 nM or above)) | E (E represents a pKi value of 7 or below (Ki of 100 nM or above)) | E (E represents a pKi value of 7 or below (Ki of 100 nM or above)) | A (A represents a pIC50 value≥7.5 (IC50≤32 nM)) | A (A represents a pKi value≥10 (Ki≤0.1 nM)) | A (A represents a value of 3 or above)
3 | C=CC(=O)N1CC(CCn2c(=O)ccc3cnc(Nc4ccc(N5CCN(S(=O)(=O)NC)CC5)cc4)nc32)C1 [Example 96] | A (A represents a value below 5×10^−6 cm/sec) | E (E represents a pKi value of 7 or below (Ki of 100 nM or above)) | E (E represents a pKi value of 7 or below (Ki of 100 nM or above)) | E (E represents a pKi value of 7 or below (Ki of 100 nM or above)) | B (B represents a pC50 value between 6.7 (included) and 7.5 (IC50 between 200 nM and 32 nM)) | A (A represents a pKi value≥10 (Ki≤0.1 nM)) | A (A represents a value of 3 or above)
4 | C=CC(=O)N1CC(CCn2c(=O)ccc3cnc(Nc4ccc(N5CCN(C)CC5)c(O)c4)nc32)C1 [Example 136] | A (A represents a value below 5×10^−6 cm/sec) | E (E represents a pKi value of 7 or below (Ki of 100 nM or above)) | E (E represents a pKi value of 7 or below (Ki of 100 nM or above)) | E (E represents a pKi value of 7 or below (Ki of 100 nM or above)) | A (A represents a pIC50 value≥7.5 (IC50≤32 nM)) | B (B represents pKi value between 9 and 10 (Ki between 1 nM and 0.1 nM)) | A (A represents a value of 3 or above)
5 | C=CC(=O)N1CC(CCn2c(=O)ccc3cnc(Nc4ccc(N5CCC(F)(F)CC5)cc4)nc32)C1 [Example 157] | C (C represents a value between 10×10^−6 and 30×10^−6 cm/sec) | E (E represents a pKi value of 7 or below (Ki of 100 nM or above)) | E (E represents a pKi value of 7 or below (Ki of 100 nM or above)) | E (E represents a pKi value of 7 or below (Ki of 100 nM or above)) | B (B represents a pC50 value between 6.7 (included) and 7.5 (IC50 between 200 nM and 32 nM)) | A (A represents a pKi value≥10 (Ki≤0.1 nM)) | A (A represents a value of 3 or above)
6 | C=CC(=O)N1CC(CCn2c(=O)ccc3cnc(Nc4ccc(N5CCN(C(=O)OC)CC5)cc4)nc32)C1 [Example 71] | B (B represents a value between 5×10^−6 and 10×10^−6 cm/sec) | E (E represents a pKi value of 7 or below (Ki of 100 nM or above)) | E (E represents a pKi value of 7 or below (Ki of 100 nM or above)) | E (E represents a pKi value of 7 or below (Ki of 100 nM or above)) | B (B represents a pC50 value between 6.7 (included) and 7.5 (IC50 between 200 nM and 32 nM)) | B (B represents pKi value between 9 and 10 (Ki between 1 nM and 0.1 nM)) | A (A represents a value of 3 or above)
7 | C=CC(=O)N1CCN(CCn2c(=O)ccc3cnc(Nc4cnn(Cc5ccccc5)c4)nc32)[C@@H](CC)C1 [Example 194] | C (C represents a value between 10×10^−6 and 30×10^−6 cm/sec) | E (E represents a pKi value of 7 or below (Ki of 100 nM or above)) | E (E represents a pKi value of 7 or below (Ki of 100 nM or above)) | E (E represents a pKi value of 7 or below (Ki of 100 nM or above)) | B (B represents a pC50 value between 6.7 (included) and 7.5 (IC50 between 200 nM and 32 nM)) | B (B represents pKi value between 9 and 10 (Ki between 1 nM and 0.1 nM)) | A (A represents a value of 3 or above)
8 | C=CC(=O)N1CC(CCn2c(=O)ccc3cnc(Nc4cccc(CN5CCSCC5)c4)nc32)C1 [Example 85] | C (C represents a value between 10×10^−6 and 30×10^−6 cm/sec) | E (E represents a pKi value of 7 or below (Ki of 100 nM or above)) | E (E represents a pKi value of 7 or below (Ki of 100 nM or above)) | E (E represents a pKi value of 7 or below (Ki of 100 nM or above)) | B (B represents a pC50 value between 6.7 (included) and 7.5 (IC50 between 200 nM and 32 nM)) | A (A represents a pKi value≥10 (Ki≤0.1 nM)) | A (A represents a value of 3 or above)
9 | C=CC(=O)N1CC(CCn2c(=O)ccc3cnc(Nc4cccc(N5CCN(C(=O)COC)CC5)c4)nc32)C1 [Example 108] | A (A represents a value below 5×10^−6 cm/sec) | E (E represents a pKi value of 7 or below (Ki of 100 nM or above)) | E (E represents a pKi value of 7 or below (Ki of 100 nM or above)) | E (E represents a pKi value of 7 or below (Ki of 100 nM or above)) | B (B represents a pC50 value between 6.7 (included) and 7.5 (IC50 between 200 nM and 32 nM)) | B (B represents pKi value between 9 and 10 (Ki between 1 nM and 0.1 nM)) | A (A represents a value of 3 or above)
10 | C=CC(=O)N1CC(CCn2c(=O)ccc3cnc(Nc4ccc(N5CCN(C(=O)OCCOC)CC5)cc4)nc32)C1 [Example 99] | A (A represents a value below 5×10^−6 cm/sec) | E (E represents a pKi value of 7 or below (Ki of 100 nM or above)) | E (E represents a pKi value of 7 or below (Ki of 100 nM or above)) | E (E represents a pKi value of 7 or below (Ki of 100 nM or above)) | B (B represents a pC50 value between 6.7 (included) and 7.5 (IC50 between 200 nM and 32 nM)) | A (A represents a pKi value≥10 (Ki≤0.1 nM)) | A (A represents a value of 3 or above)
11 | C=CC(=O)N1CCN(CCn2c(=O)ccc3cnc(Nc4ccc(N5CCN(C(C)CC)CC5)cc4)nc32)CC1 (stereo not shown) [Example 206] | C (C represents a value between 10×10^−6 and 30×10^−6 cm/sec) | E (E represents a pKi value of 7 or below (Ki of 100 nM or above)) | E (E represents a pKi value of 7 or below (Ki of 100 nM or above)) | E (E represents a pKi value of 7 or below (Ki of 100 nM or above)) | A (A represents a pIC50 value≥7.5 (IC50≤32 nM)) | A (A represents a pKi value≥10 (Ki≤0.1 nM)) | A (A represents a value of 3 or above)
12 | C=CC(=O)N1CC(CCn2c(=O)ccc3cnc(Nc4ccc(N5CCN(C)[C@H](C)C5)cc4)nc32)C1 [Example 162] | C (C represents a value between 10×10^−6 and 30×10^−6 cm/sec) | E (E represents a pKi value of 7 or below (Ki of 100 nM or above)) | E (E represents a pKi value of 7 or below (Ki of 100 nM or above)) | E (E represents a pKi value of 7 or below (Ki of 100 nM or above)) | A (A represents a pIC50 value≥7.5 (IC50≤32 nM)) | A (A represents a pKi value≥10 (Ki≤0.1 nM)) | A (A represents a value of 3 or above)
13 | C=CC(=O)N1CC(CCn2c(=O)ccc3cnc(Nc4cccc(N5CCN(S(C)(=O)=O)CC5)c4)nc32)C1 [Example 127] | A (A represents a value below 5×10^−6 cm/sec) | E (E represents a pKi value of 7 or below (Ki of 100 nM or above)) | E (E represents a pKi value of 7 or below (Ki of 100 nM or above)) | E (E represents a pKi value of 7 or below (Ki of 100 nM or above)) | B (B represents a pC50 value between 6.7 (included) and 7.5 (IC50 between 200 nM and 32 nM)) | A (A represents a pKi value≥10 (Ki≤0.1 nM)) | A (A represents a value of 3 or above)

— US11697648B2, “Fused pyrimidine pyridinone compounds as JAK inhibitors” (THERAVANCE BIOPHARMA R&D IP, LLC, priority 2019, dated 2023)
